One test concerns the target T1, S1P2 (Homo sapiens, UniProt O95136).
T1 construct: expressed in transfected cells; host or cells: S1P2 CRE-bla CHO cells
Description: S1P2 antagonist test, S1P2 CRE-bla CHO cells. It is filed as cell-based. The settings on record: S1P2 CRE-BLA CHO cell line. The procedure: (§1) Since AD2900 is a sphingolipid analogue with properties that resemble those of S1P, we intended to examine its ability to interact with the S1P receptors. To delineate whether AD2900 can function as an agonistic or antagonistic compound to any of the S1P receptors, we used a high-throughput screening cell-based assay, employing cell lines stably transfected with human S1P receptors 1, 2, 3, 4, or 5 [37]. In this experiment, a compound with an IC50 or EC50 value ≤10 μM for a certain S1P receptor is considered active as an antagonist or an agonist, respectively. The results illustrate that AD2900 acts as an antagonist to all S1P receptors (Table 1, Supplementary Figure 3). […] No agonist activation was evident.
(§2) The S1P1 agonist test and S1P2, S1P3, S1P4, and S1P5 agonist and antagonist tests were conducted as previously described using S1P1 CRE-bla CHO cells, S1P2 CRE-bla CHO cells, S1P3 NFAT-bla CHO cells, Tango™ S1P4 (EDG6)-bla U-2 OS cells, and Tango™ S1P5 ([…])-bla U-2 OS cells. The S1P1 antagonist assay was carried out according to the manufacturer’s instructions using a Tango™ S1P1 (EDG1)-bla U-2 OS Cell-Based Assay (Invitrogen, NY, USA).

The next test addresses T2, S1P4 (Homo sapiens, UniProt O95977).
T2 construct: Tango fusion partner (protease site + GAL4-VP16 transcription factor); expressed in transfected cells; host or cells: Tango S1P4 (EDG6)-bla U-2 OS cells
T2 sequence (O95977 1-384): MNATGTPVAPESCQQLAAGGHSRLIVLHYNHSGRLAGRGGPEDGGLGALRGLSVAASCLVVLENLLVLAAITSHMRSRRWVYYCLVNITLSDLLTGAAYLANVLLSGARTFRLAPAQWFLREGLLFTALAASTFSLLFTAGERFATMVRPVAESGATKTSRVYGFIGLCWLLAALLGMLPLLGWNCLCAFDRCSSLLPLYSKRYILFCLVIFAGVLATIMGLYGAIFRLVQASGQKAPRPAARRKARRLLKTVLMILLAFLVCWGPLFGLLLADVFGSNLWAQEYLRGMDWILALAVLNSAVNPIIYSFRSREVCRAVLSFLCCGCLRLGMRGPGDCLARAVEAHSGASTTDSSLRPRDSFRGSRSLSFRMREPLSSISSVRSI
Description: S1P4 agonist test, Tango S1P4 (EDG6)-bla U-2 OS cells. Format: cell-based. The following applies: S1P4 TANGO U-2 OS cell line. The procedure:
as §1, §2

For a further test, the system named is IFN-γ. Description: IFN-γ secretion from activated PBMCs, ELISA. It is filed as cell-based, human. The following applies: 1-day pretreatment, 5th day of MLR. The procedure:
(§3) Figure 1 AD2900 inhibits human lymphocyte proliferation in allogeneic activation (A, B) The levels of proliferative response of human peripheral blood lymphocytes (PBMCs) after 1-day pretreatment with different concentrations of AD2900, AD2750, YZ138, YZ158, and YZ297 (A) or AD2900, FTY720, and SEW2871 (B) were tested by human allogeneic mixed lymphocyte reaction (MLR) assay, followed by a [3H] thymidine incorporation analysis. (C) Apoptosis of AD2900-treated activated PBMCs was tested by AnnexinV-propidium iodide (PI) FACS analysis following 1-day AD2900 pretreatment and MLR. All the samples were compared to the untreated PBMC control. (D) IFN-γ secretion from activated PBMCs was tested by ELISA following a 1-day AD2900 pretreatment in MLR. On the 5th day of hMLR, supernatants were collected and assayed for the level of IFN-γ. (E) Jurkat cell viability after a 1-day treatment with different concentrations of AD2900, FTY720, and SEW2871 was tested by XTT viability assay. […]
Human PBLs were collected from human whole blood collected from healthy donors. […] For the thymidine incorporation assay, after 4 days of co-culture, cells were pulsed with ^3H-thymidine at 1 μCi (0.037MBq) per well (PerkinElmer, MA, USA) for 16 additional hours and then harvested onto glass-fiber filters. ^3H-thymidine incorporation was measured using Top Count. […]

The next test deals with H9. The experiment in a line: XTT viability assay, H9. Format: cell-based, human. The settings on record: 1-day treatment, compared with Jurkat (>10 μM). As to the method: as §3, with “assay. (F) H9, CEM/C1, and Molt4 cell viability after a 1-day treatment with different concentrations of AD2900 was tested by XTT viability assay. Graphs summarize the results of at least three independent experiments. Results of Student’s t-test: *(P < 0.05, two-tailed test), ** (P < 0.01, two-tailed test), *** (P < 0.001, two-tailed test), **** (P < 0.0001, two-tailed test).” for “assay.”

The source of these data is article PMC5581131, “The novel sphingosine-1-phosphate receptors antagonist AD2900 affects lymphocyte activation and inhibits T-cell entry into the lymph nodes” (Oncotarget, 2017).

T1 sequence (O95136 whole entry): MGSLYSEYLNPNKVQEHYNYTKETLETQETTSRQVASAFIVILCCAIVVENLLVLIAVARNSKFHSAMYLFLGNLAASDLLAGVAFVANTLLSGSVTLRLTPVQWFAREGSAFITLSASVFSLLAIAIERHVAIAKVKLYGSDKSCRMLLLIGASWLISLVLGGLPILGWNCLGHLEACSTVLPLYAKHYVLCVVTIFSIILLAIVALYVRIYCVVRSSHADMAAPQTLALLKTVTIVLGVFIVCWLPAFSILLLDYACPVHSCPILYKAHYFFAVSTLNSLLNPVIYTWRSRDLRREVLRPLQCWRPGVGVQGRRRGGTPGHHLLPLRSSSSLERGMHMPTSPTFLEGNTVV

Regarding `CCCCCCCCCCCCCCCCNC(CO)(CO)CO` [AD2900], at S1P2, the IC50 (as a rule, the concentration at which inhibition is half-maximal) came to 3.2 µM. The EC50 (usually the midpoint of the concentration-response curve) at S1P4 is more than 50 µM. Also, in the test on IFN-γ, the “IFN-γ concentrations in the supernatant” value is recorded as “reduced level”. Besides, in the test with H9, the “cell viability, H9” value is “reduced cell viability could be detected even at lower concentrations”.
